Laboratory results: PubChem BioAssay AID280 (DTP/NCI, 2004)
“And” between values parts separate entries of the source, which are not always exact repeats. Equal entries are not always repeated. Inconclusive results and toxic doses are left out.

Tested on: nude mice, LOX melanoma ip, survival T/C
Experiment: NCI In Vivo Anticancer Drug Screen. Data for tumor model Human Amelanotic Melanoma (LOX) (intraperitoneal) in NU/NU BALB/C (nude) mice
Details: endpoint: median survival time, higher = longer survival
Description: The antitumor activity of compounds was measured in mice bearing transplantable tumors. Survival or tumor size were measured and the results are expressed as the measurement made in the treated group (T) divided by the measurement made in the vehicle treated control group (C). The tumor model used in this assay is Human Amelanotic Melanoma (LOX) (intraperitoneal) in NU/NU BALB/C (nude) mice

[1] = dose: 25.0 mg/kg/injection, schedule: Q04DX003 (ip), vehicle: Klucel (hydroxypropylcellulose) (HPC)
[2] = dose: 50.0 mg/kg/injection, schedule: Q04DX003 (ip), vehicle: Klucel (hydroxypropylcellulose) (HPC)
[3] = dose: 100.0 mg/kg/injection, schedule: Q04DX003 (ip), vehicle: Klucel (hydroxypropylcellulose) (HPC)
[4] = dose: 75.0 mg/kg/injection, schedule: Q04DX003 (ip), vehicle: Klucel (hydroxypropylcellulose) (HPC)
[5] = dose: 150.0 mg/kg/injection, schedule: Q04DX003 (ip), vehicle: Klucel (hydroxypropylcellulose) (HPC)
[6] = dose: 300.0 mg/kg/injection, schedule: Q04DX003 (ip), vehicle: Klucel (hydroxypropylcellulose) (HPC)
[7] = dose: 37.5 mg/kg/injection, schedule: Q04DX003 (ip), vehicle: saline
[8] = dose: 75.0 mg/kg/injection, schedule: Q04DX003 (ip), vehicle: saline
[9] = dose: 150.0 mg/kg/injection, schedule: Q04DX003 (ip), vehicle: saline
[10] = dose: 300.0 mg/kg/injection, schedule: Q04DX003 (ip), vehicle: saline
[11] = dose: 3.13 mg/kg/injection, schedule: Q04DX003 (ip), vehicle: saline with Tween-80
[12] = dose: 6.25 mg/kg/injection, schedule: Q04DX003 (ip), vehicle: saline with Tween-80
[13] = dose: 25.0 mg/kg/injection, schedule: Q04DX003 (ip), vehicle: saline with Tween-80
[14] = dose: 400.0 mg/kg/injection, schedule: Q04DX003 (ip), vehicle: Klucel (hydroxypropylcellulose) (HPC)
[15] = dose: 12.5 mg/kg/injection, schedule: Q04DX003 (ip), vehicle: saline with Tween-80

O=c1[nH]cnc2c1cnn2CN1CCOCC1
T/C [1]: 93 % of control | T/C [2]: 123 % of control | T/C [3]: 109 % of control

CC1=CC=CC(C)(C)C(O)C1=O (stereo unspecified)
T/C (dose: 18.75 mg/kg/injection, schedule: Q04DX003 (ip), vehicle: Klucel (hydroxypropylcellulose) (HPC)): 98 % of control | T/C (dose: 37.5 mg/kg/injection, schedule: Q04DX003 (ip), vehicle: Klucel (hydroxypropylcellulose) (HPC)): 94 % of control | T/C [4]: 98 % of control | T/C [5]: 98 % of control | T/C [6]: 93 % of control

Nc1ccn([C@@H](C=O)C[C@@H](C=O)CO)c(=O)n1
T/C (dose: 18.75 mg/kg/injection, schedule: Q04DX003 (ip), vehicle: saline): 105 % of control | T/C [7]: 107 % of control | T/C [8]: 103 % of control | T/C [9]: 103 % of control | T/C [10]: 102 % of control

CCC(NC(N)=O)C(CC)NC(N)=O (stereo unspecified)
T/C [11]: 103 % of control | T/C [12]: 109 % of control | T/C [13]: 105 % of control

COC1C(O)CC(OC2CC(Oc3cc4cc5c(c(O)c4c(O)c3C)C(=O)[C@@H](OC3CC(OC4CC(OC6CC(C)(O)C(OC(C)=O)C(C)O6)C(O)C(C)O4)C(O)C(C)O3)[C@H]([C@H](OC)C(=O)[C@@H](O)[C@@H](C)O)C5)OC(C)C2OC(C)=O)OC1C (stereo partly specified)
T/C (dose: 0.15 mg/kg/injection, schedule: Q04DX003 (ip), vehicle: Klucel (hydroxypropylcellulose) (HPC)): 116 % of control | T/C (dose: 0.3 mg/kg/injection, schedule: Q04DX003 (ip), vehicle: Klucel (hydroxypropylcellulose) (HPC)): 314 % of control | T/C (dose: 0.6 mg/kg/injection, schedule: Q04DX003 (ip), vehicle: Klucel (hydroxypropylcellulose) (HPC)): 198 % of control

O=C(NC(Cc1ccc(I)cc1)C(=O)O)c1cccc(Br)c1 (stereo unspecified)
T/C [2]: 112 % of control | T/C [4]: 105 % of control | T/C [3]: 112 % of control | T/C [5]: 89 % of control | T/C (dose: 200.0 mg/kg/injection, schedule: Q04DX003 (ip), vehicle: Klucel (hydroxypropylcellulose) (HPC)): 103 % of control | T/C [6]: 96 % of control | T/C [14]: 87 % of control

NC(Cn1ccc(=O)c(O)c1)C(=O)O (stereo unspecified)
T/C (dose: 75.0 mg/kg/injection, schedule: Q04DX003 (ip), vehicle: suspension in saline): 105 % of control | T/C (dose: 150.0 mg/kg/injection, schedule: Q04DX003 (ip), vehicle: suspension in saline): 105 % of control | T/C (dose: 300.0 mg/kg/injection, schedule: Q04DX003 (ip), vehicle: suspension in saline): 109 % of control | T/C (dose: 600.0 mg/kg/injection, schedule: Q04DX003 (ip), vehicle: suspension in saline): 100 % of control | T/C (dose: 1200.0 mg/kg/injection, schedule: Q04DX003 (ip), vehicle: suspension in saline): 104 % of control

CC(O)CCC(=O)c1ccoc1 (stereo unspecified)
T/C (dose: 10.8 mg/kg/injection, schedule: Q01DX001 (ip), vehicle: propolene glycol): 103 % of control and 118 % of control and 119 % of control | T/C (dose: 30.0 mg/kg/injection, schedule: Q01DX001 (ip), vehicle: propolene glycol): 117 % of control

CC1(O)C=CC(=O)C=C1
T/C (dose: 6.25 mg/kg/injection, schedule: Q04DX003 (ip), vehicle: water): 108 % of control | T/C (dose: 12.5 mg/kg/injection, schedule: Q04DX003 (ip), vehicle: water): 101 % of control | T/C (dose: 25.0 mg/kg/injection, schedule: Q04DX003 (ip), vehicle: water): 105 % of control | T/C (dose: 50.0 mg/kg/injection, schedule: Q04DX003 (ip), vehicle: water): 111 % of control

O=C1CN(c2ccccc2)C(=O)C1C(=O)Nc1ccc(Cl)c(Cl)c1 (stereo unspecified)
T/C (dose: 120.0 mg/kg/injection, schedule: Q04DX003 (ip), vehicle: saline with Tween-80): 115 % of control

CC(O)C1(O)C(O)CC(OC2c3cc4c(c(O)c3[C@@H]3C[C@@]2(C)OC32C=c3cc[nH]c3=N2)C(=O)c2cccc(O)c2C4=O)OC1C (stereo partly specified)
T/C (dose: 3.75 mg/kg/injection, schedule: Q04DX003 (ip), vehicle: saline with Tween-80): 108 % of control | T/C (dose: 7.5 mg/kg/injection, schedule: Q04DX003 (ip), vehicle: saline with Tween-80): 112 % of control | T/C (dose: 15.0 mg/kg/injection, schedule: Q04DX003 (ip), vehicle: saline with Tween-80): 117 % of control | T/C (dose: 30.0 mg/kg/injection, schedule: Q04DX003 (ip), vehicle: saline with Tween-80): 117 % of control | T/C (dose: 60.0 mg/kg/injection, schedule: Q04DX003 (ip), vehicle: saline with Tween-80): 91 % of control

COC1=CCC23C(=O)C=CC(=O)C2(C1)C(=O)c1ccccc1C3=O (stereo unspecified)
T/C [12]: 101 % of control | T/C [15]: 100 % of control | T/C [13]: 94 % of control

O=C(Oc1ccccc1)c1cc(O)c(O)c(O)c1
T/C [7]: 157 % of control | T/C [8]: 99 % of control | T/C [9]: 152 % of control | T/C [10]: 88 % of control | T/C (dose: 600.0 mg/kg/injection, schedule: Q04DX003 (ip), vehicle: saline): 94 % of control

COc1ccc2c(ccc3oc([N+](=O)[O-])cc32)c1
T/C [3]: 121 % of control | T/C (dose: 120.0 mg/kg/injection, schedule: Q04DX003 (ip), vehicle: Klucel (hydroxypropylcellulose) (HPC)): 170 % of control | T/C [14]: 86 % of control

O=C(NC(Cc1ccc(I)cc1)C(=O)O)c1ccc(Br)cc1 (stereo unspecified)
T/C (dose: 18.75 mg/kg/injection, schedule: Q04DX003 (ip), vehicle: other): 94 % of control | T/C (dose: 18.75 mg/kg/injection, schedule: Q04DX003 (ip), vehicle: sodium bicarbonate): 111 % of control | T/C (dose: 37.5 mg/kg/injection, schedule: Q04DX003 (ip), vehicle: other): 151 % of control | T/C (dose: 37.5 mg/kg/injection, schedule: Q04DX003 (ip), vehicle: sodium bicarbonate): 107 % of control | T/C (dose: 75.0 mg/kg/injection, schedule: Q04DX003 (ip), vehicle: other): 91 % of control | T/C (dose: 75.0 mg/kg/injection, schedule: Q04DX003 (ip), vehicle: sodium bicarbonate): 96 % of control | T/C (dose: 150.0 mg/kg/injection, schedule: Q04DX003 (ip), vehicle: other): 98 % of control | T/C (dose: 150.0 mg/kg/injection, schedule: Q04DX003 (ip), vehicle: sodium bicarbonate): 86 % of control | T/C (dose: 300.0 mg/kg/injection, schedule: Q04DX003 (ip), vehicle: sodium bicarbonate): 106 % of control

C=C(c1ccc(OC)c(OC)c1)c1nccc2cc(OC)c(OC)cc12
T/C [4]: 88 % of control | T/C [5]: 99 % of control | T/C [6]: 96 % of control

CO[C@@]12[C@@H]3N[C@@H]3CN1C1=C(C(=O)C(NCCc3ccccn3)=C(C)C1=O)[C@@H]2COC(N)=O
T/C (dose: 1.5 mg/kg/injection, schedule: Q04DX003 (ip), vehicle: saline with Tween-80): 187 % of control | T/C (dose: 3.12 mg/kg/injection, schedule: Q04DX003 (ip), vehicle: saline with Tween-80): 192 % of control | T/C [11]: 159 % of control | T/C [12]: 179 % of control and 198 % of control | T/C [15]: 317 % of control and 340 % of control | T/C [13]: 317 % of control and 340 % of control

CCC(=O)[O][Bi]([c]1ccccc1)[c]1ccccc1
T/C (dose: 3.13 mg/kg/injection, schedule: Q04DX003 (ip), vehicle: Klucel (hydroxypropylcellulose) (HPC)): 93 % of control | T/C (dose: 6.25 mg/kg/injection, schedule: Q04DX003 (ip), vehicle: Klucel (hydroxypropylcellulose) (HPC)): 88 % of control | T/C (dose: 12.5 mg/kg/injection, schedule: Q04DX003 (ip), vehicle: Klucel (hydroxypropylcellulose) (HPC)): 110 % of control | T/C [1]: 100 % of control

Cn1cc(C2NC(=O)c3ccccc3N2)c2ccccc21 (stereo unspecified)
T/C [4]: 110 % of control and 100 % of control | T/C [5]: 106 % of control and 122 % of control | T/C [6]: 110 % of control and 94 % of control

CCCCCCCCCCCCCCCCCCOCC(CO)OC (stereo unspecified)
T/C (dose: 150.0 mg/kg/injection, schedule: Q04DX003 (ip), vehicle: saline with Tween-80): 150 % of control and 151 % of control | T/C (dose: 300.0 mg/kg/injection, schedule: Q04DX003 (ip), vehicle: saline with Tween-80): 160 % of control

O=CC(CO)CC(C=O)n1cnc2c(=O)[nH]cnc21 (stereo unspecified)
T/C (dose: 50.0 mg/kg/injection, schedule: Q04DX003 (ip), vehicle: saline): 109 % of control | T/C (dose: 100.0 mg/kg/injection, schedule: Q04DX003 (ip), vehicle: saline): 102 % of control | T/C (dose: 200.0 mg/kg/injection, schedule: Q04DX003 (ip), vehicle: saline): 103 % of control | T/C (dose: 400.0 mg/kg/injection, schedule: Q04DX003 (ip), vehicle: saline): 113 % of control | T/C (dose: 800.0 mg/kg/injection, schedule: Q04DX003 (ip), vehicle: saline): 100 % of control
